Laboratory results published in ChEMBL document CHEMBL3098062, “Influenza RNA-Dependent RNA Polymerase (RdRp) Inhibitors: Potential New Therapy for Influenza Treatment” (ACS Med Chem Lett, 2013).

How the values were obtained:
Influenza A virus = assay: Antiviral activity against Influenza A virus PC/1/73 infected in human bronchial/tracheal epithelial cells after 5 days by fluorescence assay; type: functional, organism-based; details: PC/1/73, Epithelial cell, Trachea, 120 h
Influenza B virus = assay: Antiviral activity against Influenza B virus Lee/40 infected in human bronchial/tracheal epithelial cells after 5 days by fluorescence assay; type: functional, organism-based; details: B/Lee/1940, Epithelial cell, Trachea, 120 h

Nc1ncnn2c([C@@H]3O[C@H](CO)[C@@H](O)[C@H]3F)cnc12
EC50 (Influenza A virus): 0.9 µM | EC50 (Influenza B virus): 0.9 µM

Nc1nc(F)nn2c([C@@H]3O[C@H](CO)[C@@H](O)[C@H]3F)cnc12
EC50 (Influenza A virus): > 100 µM | EC50 (Influenza B virus): > 100 µM

CCOc1nc(N)nn2c([C@@H]3O[C@H](CO)[C@@H](O)[C@H]3F)cnc12
EC50 (Influenza A virus): > 200 µM | EC50 (Influenza B virus): > 200 µM

Nc1nc(N)c2ncc([C@@H]3O[C@H](CO)[C@@H](O)[C@H]3F)n2n1
EC50 (Influenza A virus): 21 µM | EC50 (Influenza B virus): 51 µM
